Measurements published in article PMC6789442, “Unraveling Hepcidin Plasma Protein Binding: Evidence from Peritoneal Equilibration Testing” (Pharmaceuticals, 2019).
Read-outs that look alike come from different tables or passages of the source.

Experiments:
[1] = Solute concentration in blood (plasma/serum) before dialysis
Procedure: (§1) All were centrifuged at 2000 g for 10 min.
(§2) Measurements of urea, creatinine, and IgG were performed on a Cobas C8000 random access analyzer (Roche Diagnostics, Basel, Switzerland).
(§3) This MS-based assay determines total hepcidin (i.e., the sum of bound and unbound fraction). Peptide spectra were generated on a Microflex LT […] laser desorption/ionisation TOF MS platform (Bruker Daltonics, Hamburg, Germany). Hepcidin concentrations were expressed as nmol/L. The lower limit of quantification of this method was 0.5 nM.
Cortisol and testosterone were analyzed by Liquid Chromatography-Mass Spectrometry (LC-MS/MS) after protein precipitation and solid-phase extraction. Internal standard [^2H4]-cortisol and [^13C3]-testosterone (Isoscience, Ambler, PA, USA) was added to 100 µL serum. Subsequently, 300 µL acetonitrile with 0.1% formic acid was added for protein precipitation and 300 µL H2O was added to 200 µL supernatant followed by solid phase extraction (Oasis HLB 1cc, Waters, Milford, MA, USA). The eluate (methanol:isopropanol 95:5) was dried under a stream of N2 gas, reconstituted in methanol:water (3:7) and injected (10 µL) into an Agilent Technologies 1290 Infinity Ultra High Performance Liquid Chromatography (UHPLC)-system (Agilent Technologies, Agilent, Santa Clara, CA, USA) equipped with a BEH C18 (1.7 μm 2.1 × 50 mm) analytical column (Waters Corp.) at 60 °C. Mobile phase A (methanol:water 20:80 + 2 mM NH4CH3COO + 0.1% formic acid) and B (methanol:water 98:2 + 2 mM NH4CH3COO + 0.1% formic acid) were run in a gradient (0.4 mL/min). Start gradient 70:30 A:B for 2.5 min; then to 40:60 A:B in 3.5 min; followed by a gradient in 0.5 min to 2:98 to remain such for 0.5 min and thereafter to 70:30 A:B in 0.5 min and remain such for 0.5 min. […] Total run time was 8 min. A 9-point calibration curve was used (cortisol and testosterone, Steraloids). An Agilent 6490 tandem mass spectrometer (Agilent Technologies, Agilent, Santa Clara, CA, USA) was operated in the electrospray positive ion mode, with a capillary voltage 3.5 kV, fragmentor voltage 380 V, sheath gas temperature 350 °C, and gas temperature 150 °C with N2 collision gas. Two transitions (qualitative and quantitative) were monitored. Transitions (Q1 > Q3) were m/z 363.4 > 97.1 (34 V) and m/z 363.4 > 121.1 (25 V) for cortisol; m/z 367.4 > 97.1 (34 V) and m/z 367.4 > 121.1 (25 V) for [2H4]-cortisol. m/z 289.2 > 109.1 […] and m/z 289.2 > 97.1 […] for testosterone; m/z 292.3 > 112.1 […] and m/z 292.3 > 100.1 […] for 13C3-testosterone. Dwell time was 100 ms and 50 ms for cortisol and testosterone, respectively.

plasma proteins = experiment: Plasma protein binding percentage calculated from measured vs expected peritoneal clearance (MW-clearance curve); format: in vivo, human; details: (1 − measured PC / expected PC) × 100%; expected PC from Log10(PC) = 4.5744 – 0.05063 × cube root MW; ESRD patients in PET; mean (±sd)
Text: Logarithmic transformation was used for PC data before statistical analysis, as the data was not normally distributed. In addition, we used a cube root scaling for MW, since transport rates are related to size and thus radius (r), and considering volume as a three-dimensional characteristic of the radius (r^3). The curve describing the relation between MW and PC of all analytes was estimated with a linear mixed model using a random slope and random intercept. The expected PC of each analyte could be calculated using its MW and the equation of the curve. We calculated the binding percentage as:Binding percentage (%) = (1 − (Measured PC)/(Expected PC)) × 100%.(3)
In this equation, the measured PC divided by the expected PC represents the free hormone fraction. The strength of a linear association between the clearances of two analytes was measured using Spearman’s correlation coefficient.

[2] = Solute concentration in peritoneal dialysate at 1 h dwell
Procedure: as §1, §2, §3
Testosterone and cortisol in peritoneal dialysate were analyzed by LC-MS/MS after solid-phase extraction. Sample preparation consisted of internal standard addition [13C3]-testosterone (Isoscience, Ambler, PA, USA) and […] (Isoscience) to 1000 µL dialysate and solid phase extraction (SPE) using Oasis® MCX 1cc cartridges (Waters Corp, Milford, MA, USA).
Columns were pre-equilibrated with 1 mL MeOH:IPA (95:5) and subsequently washed with 1 mL H2O. After application of the sample, columns were washed with 1 mL H2O:NH4OH (95:5) and 1 mL MeOH:H2O (20/80) + 2% HCOOH. The 300 µL eluate (MeOH) was dried under a stream of N2 gas, reconstituted in MeOH:H2O (30:70). A nine-point calibration series was used (using testosterone and cortisol both from Steraloids). Calibrators, quality controls, and samples (reconstituted in 100 µL) were injected (10 µL) into an Agilent Technologies 1290 Infinity VL UHPLC-system (Agilent Technologies, Santa Clara, USA), equipped with a BEH C18 (1.7 μm 2.1 X 50 mm) analytical column (Waters Corp., Milford, MA, USA) at 60 °C. Mobile phase A (MeOH/H2O (20:80) + 2 mM NH4CH3COO + 0.1% HCOOH) and B (MeOH/H2O (98:2) + 2 mM NH4CH3COO + 0.1% HCOOH) were run in a gradient (0.4 mL/min). The gradient program was as follows: Start gradient A:B (70:30) for 2.5 min; followed by a gradient in 2 min to A:B (60:40) and subsequent 2.5 min A:B (35:65). For column washing, a gradient 0.5 min A:B (98:2) was established to remain such for 0.5 min. The column was re-equilibrated to A:B (70:30) in 0.5 min and remained such for 0.5 min. […] An Agilent 6490 tandem mass spectrometer (Agilent Technologies, Santa Clara, CA, USA) was operated in the electrospray positive ion mode. Operating conditions were as follows: Capillary voltage 3.5 kV, fragmentor voltage 380 V, sheath gas temperature 350 °C, and gas temperature 150 °C. The collision energy was optimized between 25 and 34 eV for all solutes and Nitrogen was used as collision gas. Two mass transitions were monitored for each analyte and the internal standards. The first transition was used for quantification, the second for confirmation. The transitions (Q1 > Q3) were m/z 289 > 97 and m/z 289 > 109 for testosterone; m/z 292 > 100 and m/z 292 > 112 for [13C3]-testosterone; m/z 363 > 121 and m/z 363 > 97 for cortisol; m/z 367 > 121 and m/z 367 > 97 for [3H4]-cortisol. Total run time was 9 min.
For both total and free cortisol PC calculations, we used total cortisol measurements in dialysate, since we assume that all cortisol present in dialysate after 1 h of dwell time is free considering the large MW of its main binding protein corticosteroid binding globulin (MW 52 kDa).

[3] = ESRD patients, serum at t = 0 h, equilibrium dialysis 5 h, 37 °C, 5 kDa membrane, HEPES buffer pH 7.40, LC-MS/MS, N = 9
Procedure: Serum was dialyzed in a multi-cell equilibrium dialyzer using Teflon dialyzing cells consisting of two identical parts between which a flat membrane is fitted (Dianorm-Geräte). The dialysis cells are incubated in a water bath with constant agitation by a rotating apparatus and temperature during dialysis was maintained at 37 ± 0.5 °C, by constant monitoring with an immersion thermostatic system (Tinytag TGP-4020 logger and PB5001-1M5 sonde; Gemini data loggers). The dialysis membranes were prepared from Dianorm (Diachema dialysis membranes 10.14) with a cut-off of 5 kDa. Equilibrium dialysis was performed for 5 h with 180 µL serum against 180 µL HEPES buffer; while rotating the dialysis apparatus at 20 rpm.

[4] = in vivo
Procedure: (§4) Dialysate sampling was performed at 1 h of dwell time (t = 1 h), since peritoneal transport of solutes with a low MW (<200 Da) will decrease over a longer period of time due to saturation of the dialysate [22]. For sampling, all dialysate fluid was collected in a plastic (PVC) bag and mixed ex vivo before a sample was taken, to assure dialysate samples were representative for the fluid in the peritoneal cavity. Thereafter, the remaining dialysate was returned into the peritoneal cavity. […] Blood samples were drawn prior to dialysis (t = 0 h) in both heparin plasma and serum tubes. All were centrifuged at 2000 g for 10 min. Blood and dialysate samples were aliquoted and immediately stored at −80 °C until measurement.
(§5) Measurement results for solutes below the lower limit of detection (LLOD) were excluded.

[5] = Peritoneal clearance from peritoneal equilibration test (PET); details: ESRD patients in PET; for Peritoneal Clearance t = 0–1 h Mean (sd): [Dialysate] t = 1 h / [Blood] t = 0 h × dialysate volume / 60 min, total blood concentration, N 14, 13 testosterone, 10 cortisol, 13 hepcidin
Procedure: as §4, §5

[6] = rapidly excreted by the kidneys; cited from earlier work
Text: Our finding that hepcidin is not predominantly bound is in line with other literature, in which a merely freely circulating hepcidin was observed using gel chromatography on human serum samples, followed by Liquid Chromatography-Mass Spectrometry (LC-MS/MS). In fact, other peptide hormones such as human growth hormone, insulin [28], and cardiac natriuretic hormones circulate freely, since peptide hormones are often water-soluble and can, therefore, easily be transported via the cardiovascular system without requiring carrier proteins. In addition, hepcidin is ...

[7] = peritoneal dialysate at 1 h dwell, 3.86% glucose solution, ESRD patients, total measurement, mean (sd), N 13 testosterone, 10 cortisol, 13 hepcidin

| Molecule | [Plasma] t = 0 h Mean (sd), total concentration ([1]; in vivo) | Binding percentage (protein-bound fraction) (plasma proteins) | [Dialysate] t = 1 h Mean (sd) [2, 7] | Peritoneal Clearance t = 0–1 h Mean (sd) [4] | [Dialysate] t = 1 h Mean (sd) ([2]; in vivo) | Peritoneal Clearance t = 0–1 h Mean (sd) [5] | other results |
| --- | --- | --- | --- | --- | --- | --- | --- |
| C[C@]12CCC(=O)C=C1CC[C@@H]1[C@@H]2[C@@H](O)C[C@@]2(C)[C@H]1CC[C@]2(O)C(=O)CO [Cortisol, cortisol] | 229.1 (134.4) nmol/L | 91% (±3%) | 8.4 (5.8) nmol/L | 1439.0 (490.8) µL/min |  |  | [Dialysate] t = 1 h Mean (sd), row of free cortisol ([2]; total cortisol measured in dialysate at 1 h, assumed to be all free, used for free cortisol clearance, mean (sd), N = 9): 8.4 (5.8) nmol/L; [Plasma] t = 0 h Mean (sd), free cortisol [3]: 12.7 (7.7) nmol/L; Peritoneal Clearance t = 0–1 h Mean (sd), free cortisol ([5]; calculated with free serum cortisol at t = 0 h and total cortisol in dialysate at 1 h, N = 9): 25,030.8 (8123.9) µL/min |
| CN1CC(=O)NC1=N [Creatinine, creatinine] |  |  |  | 21,499.6 (5861.6) µL/min | 296.9 (119.9) µmol/L |  | [Plasma] t = 0 h Mean (sd) ([1]; in vivo): 542.0 (172.6) µmol/L |
| C[C@]12CC[C@H]3[C@@H](CCC4=CC(=O)CC[C@@]43C)[C@@H]1CC[C@@H]2O [Testosterone, testosterone] |  | 97% (±1.5%) | 0.1 (0.1) nmol/L |  |  | 507.7 (260.5) µL/min | [Plasma] t = 0 h Mean (sd), total concentration ([1]; ESRD patients undergoing PET, blood at t = 0 h, total = free and protein-bound, cortisol/testosterone LC-MS/MS, hepcidin WCX-TOF MS, mean (sd), N 13 testosterone, 10 cortisol, 13 hepcidin): 8.6 (7.3) nmol/L |
| NC(N)=O [Urea, urea] |  |  |  |  |  | 26,959.1 (6211.8) µL/min | [Plasma] t = 0 h Mean (sd) ([1]; ESRD patients on peritoneal dialysis undergoing PET, blood drawn before dialysis (t = 0 h), endogenous solute, mean (sd), N = 14): 21.5 (6.6) mmol/L; [Dialysate] t = 1 h Mean (sd) ([2]; peritoneal dialysate at 1 h dwell, 3.86% glucose solution, ESRD patients, mean (sd), N = 14): 15.0 (6.1) mmol/L |
| hepcidin | 10.6 (9.1) nmol/L | 40% (±23%) |  |  | 1.2 (1.1) nmol/L | 4337.5 (1713.1) µL/min | half-life [6]: several hours |
